From PubChem BioAssay AID1645848
Converted amounts (≈) assume the structure as drawn.

Settings: buffer; pH 7.4; 6.0 h; 150.0 µM

SMILES	solubility kinetic [µg/mL]
OCc1ccc(-c2cc3c(ccn3Cc3cccnc3)c(C3=CCOCC3)n2)cc1	54.9 (≈ 138 µM)
COc1ccc(OC)c(CNc2ncnc3onc(C)c23)c1	> 44
CN(C)C(=O)NC1CCC(CCN2CCN(c3cccc(Cl)c3Cl)CC2)CC1 (centres undefined)	34.8 (≈ 81.3 µM)
O=C(c1nc(-c2cccnc2)c2ccccn12)N1CCN(c2ncccn2)CC1	9.57 (≈ 24.8 µM)
CC(C)(C)CC(C)(C)c1ccc(O)cc1	2.09 (≈ 10.1 µM)
Cc1ccc(C(=O)N2CCc3sc(C(=O)NC(C)c4ccccc4)cc3C2)cc1 (centres undefined)	2.09 (≈ 5.17 µM)
CN1CCN(C(=O)Cc2c[nH]c3ncc(-c4ccccc4Oc4ccccc4)cc23)CC1	> 42
O=S(=O)(Nc1cccc2ccccc12)c1ccc(NCc2cccc(Cl)c2O)cc1	< 1
COCCNc1ncc(-c2cccc(O)c2)c2c1OCC2	> 85
CN1Cc2c(ccc3c2OCO3)[C@@H]2[C@H]1c1cc3c(cc1C[C@@H]2O)OCO3	> 52
CC(=O)Nc1cc(-c2nc(Nc3ccc(F)c(F)c3)c3ccccc3n2)ccn1	< 1
CC1(C)CNc2cc(NC(=O)c3cccnc3NCc3ccncc3)ccc21	41.8 (≈ 112 µM)
Cc1cccc(-n2cnc3cc(C(=O)N4CCCC(C)(C)C4)ccc32)c1	37.7 (≈ 109 µM)
Cc1cc(-c2nnc3n2CCCCC3)c(C)n1-c1cccnc1	32.5 (≈ 106 µM)
CCOc1ccc(N2CC(c3nc(-c4cc(OC)c(OC)c(OC)c4)no3)CC2=O)cc1 (centres undefined)	2.38 (≈ 5.41 µM)
O=C(NCCO)c1cccc(-c2cc(Nc3ccc(OC(F)(F)F)cc3)ncn2)c1	8.93 (≈ 21.3 µM)
COc1ccc2nc(C)cc(Nc3ccc(Cl)c(Cl)c3)c2c1	< 1
Cc1ccc(NS(=O)(=O)c2c(C)[nH]c(C)c2C(=O)N2CCCC2)cc1Cl	48 (≈ 121 µM)
Cc1ccc(S(=O)(=O)Nc2cnccc2C(=O)Nc2nc(-c3cccc(C)c3)cs2)cc1	15.4 (≈ 33.1 µM)
O=C(Nc1nc2cc(C(F)(F)F)ccc2s1)c1ccc(-c2cccc([N+](=O)[O-])c2)o1	< 1

SMILES	solubility kinetic [µg/mL]
CCOc1ccc(CN2C(=O)c3ccccc3Sc3ccc(C(=O)NC4CCC(C)CC4)cc32)cc1 (centres undefined)	6.78 (≈ 13.5 µM)
CCOc1ccc(-c2nc(SCC(=O)Nc3ccc(C)c(C)c3)n3[nH]c(=O)cc3n2)cc1	< 1
COc1ccc(-c2nc3ccccc3c(=O)n2Cc2ccccc2)cc1COc1ccc(NC(C)=O)cc1	< 1
COc1ccc(NC(=O)c2cc(-c3ccc[nH]3)n[nH]2)cc1OC	> 31
CC(C)Oc1ccc(CCNC(=O)c2cc3sccc3n2Cc2ccccc2)cc1OC(C)C	< 1
O=[S+]([O-])(Nc1ccccc1)c1ccc(NCc2cccc(C(F)(F)F)c2F)cc1	1.11 (≈ 2.62 µM)
Cc1ccc(C2=CSC(NC(=O)CSc3nncn3C)=NN2)cc1	> 53
O=S(=O)(Nc1cccc2cccnc12)c1ccc(NCc2ccc(Br)cc2O)cc1	< 1
O=C1CCCC2=C1C(c1[nH]ncc1Cl)N=C(Nc1nc3cc(F)ccc3o1)N2 (centres undefined)	3.16 (≈ 7.87 µM)
COc1ccc(C(=O)CCN(C)C)cc1F	> 33
CCc1ccc(NC(=O)c2[nH]c(C)c(C(C)=O)c2C)cc1S(=O)(=O)Nc1ccc(Br)cc1	7.72 (≈ 14.9 µM)
Cc1cc(C)nc(NC(=S)N2CCN(c3cccc(OC(F)F)c3)CC2)c1	11.6 (≈ 29.4 µM)
Cc1ccccc1C(=O)N1CCC(C(=O)N2CCC(N3Cc4ccccc4C3=O)CC2)CC1	> 44
c1coc(-c2nc3ccncc3[nH]2)c1	13.9 (≈ 75.1 µM)
Cc1ccc(-c2ccc(CNc3nc(-c4ccccc4C(C)C)ncc3C)cc2)cn1	< 1
N#Cc1ccc(-c2csc(N3CCC(C(N)=O)CC3)n2)cc1	4.34 (≈ 13.9 µM)
NC(=O)COc1cccc(C2CC(=O)Nc3nc(N4CCCCC4)sc32)c1 (centres undefined)	> 57
Cc1ccc(NC2=C(c3ccc(C(F)(F)F)cc3)C(=O)c3ccccc32)cc1F	< 1
COc1ccc2[nH]c(C[C@@H]3C[C@@H](C(C)C)[C@H](CNCc4ccccc4O)C=C3C)nc2n1	42.1 (≈ 96.9 µM)
N=c1c2c(ncn1-c1ccccc1)Oc1ccc3ccccc3c1C2c1ccc2c(c1)CCO2 (centres undefined)	2 (≈ 4.5 µM)

SMILES	solubility kinetic [µg/mL]
Cc1ccc2cccc(NC(=O)c3ccc(OC(C)C)cc3)c2n1	< 1
COc1ccc(NC(=O)c2cccnc2)cc1S(=O)(=O)Nc1ccc(Br)cc1	33.5 (≈ 72.5 µM)
COc1ccc(Cl)cc1NC(=O)c1sc2nc3c(cc2c1N)N1CCC3CC1	< 1
Cc1ccccc1CN1C2=NCCN2C(=O)C2=C1CCN(Cc1ccccc1)C2	26.7 (≈ 69 µM)
O=C(c1ccco1)N1CCN(c2nc(-c3ccc(Br)cc3)cs2)CC1	2.3 (≈ 5.5 µM)
CN(C)C(=O)c1ccc(-c2cc[nH]c(=O)c2N)cc1	> 38
COc1ccccc1NC(=O)C1=C(C)Nc2c(C(=O)Nc3ccc(F)cc3)cnn2C1c1ccc(Cl)cc1 (centres undefined)	< 1
Cn1ccc2c(C(=O)NCCC(N)=O)nc(-c3cccc(CO)c3)cc21	> 78
CCNC(=O)N1CCCN(c2ccc(C(=O)NCCc3ccc(Cl)cc3Cl)cc2NC(=O)c2cccc(Cl)c2)CC1	< 1
Cc1ccc(S(=O)(=O)Nc2cnccc2C(=O)Nc2nc(-c3nc4ccccc4s3)cs2)cc1	2.11 (≈ 4.15 µM)
Cc1cccc2nc(NC3=NC(c4[nH]ncc4Cl)C4=C(CCCC4=O)N3)oc12 (centres undefined)	1.82 (≈ 4.6 µM)
COc1ccc2[nH]c(=O)c(-c3noc(-c4cccs4)n3)cc2c1	< 1
Cc1ccc(S(=O)(=O)Nc2ccccc2C(=O)Nc2ncc(-c3ccccc3)o2)cc1	< 1
COc1cccc(-c2cn3c(n2)sc2cc(C(=O)NCCc4ccc(OC)c(OC)c4)ccc23)c1	< 1
O=C(Nc1ncc(Cc2ccccc2)s1)c1ccc(-c2cccc([N+](=O)[O-])c2)o1	< 1
O=[S+]([O-])(Nc1ccc(C2CCNCC2)cc1)c1ccc(NCc2ccc(Br)cc2O)cc1	12.8 (≈ 24.8 µM)
Nc1nccc2c1ncn2[C@@H]1C=C(CO)[C@@H](O)[C@H]1O	> 39
Fc1ccc(N2CCCN(CC3[C@H]4CNC[C@@H]34)CC2)cc1 (some centres undefined)	> 43
CN(C)c1cccc(-c2ncc(F)c(N3CCC(C(N)=O)CC3)n2)c1	> 51

Other lines, results leading:

solubility kinetic [µg/mL]	SMILES
< 1	COc1cccc(NS(=O)(=O)c2ccc(C)cc2)c1C(=O)Nc1nc(-c2ccccc2)cs1
> 60	O=c1cc(CN2CCCN(c3ccc(C(F)(F)F)cn3)CC2)nc2ccccn12
> 74	CC(C)c1ccc(S(=O)(=O)c2cnc(SCC(=O)Nc3ccc4c(c3)OCCO4)[nH]c2=O)cc1
< 1	COc1cc(NS(=O)(=O)c2ccc(C)cc2)c(C(=O)Nc2nc(-c3ccccc3)cs2)cc1OC
< 1	COc1ccccc1-c1nc(NCc2ccc(-c3cccnc3)cc2)c2ccccc2n1
< 1	COc1ccc(S(=O)(=O)N(CC(=O)Nc2ccc(C)cc2)c2ccc(C)cc2)cc1OC
> 61	COc1cc([C@@H]2c3cc4c(cc3[C@H](O)[C@H]3COC(=O)[C@H]23)OCO4)cc(OC)c1OC
1.8 (≈ 5.29 µM)	O=c1c2ccccc2nc(/C=C/c2cccnc2)n1Cc1ccccc1
< 1	CC(C)c1ccccc1-c1ncc(F)c(NC2(c3ccc(-c4cccnc4)cc3)CC2)n1
12.2 (≈ 36.4 µM)	COc1ccc(C2Nc3ccccc3C(=O)N2Cc2ccco2)cc1 (centres undefined)
8.35 (≈ 29.5 µM)	CCN(CC)CCOc1ccc(Cc2ccccc2)cc1
6.63 (≈ 15.7 µM)	COc1ccc(CCNC(=O)Cn2c(=O)c3cccn3c3ccc(F)cc32)cc1OC
1.62 (≈ 4.05 µM)	CCOc1ccc(CCNC(=O)c2cc3sccc3n2C(C)C)cc1OCC
< 1	Cc1cc2c(-c3cccc(O)c3)nc(-c3c(C)noc3C)cc2[nH]1
< 1	COc1ccc(NC(=O)CCCc2nnc3n(CCC(C)C)c(=O)c4sccc4n23)cc1Cl
8.67 (≈ 22.5 µM)	Cc1ccc(C(=O)N2CCc3c(nc4cc(-c5ccccc5)[nH]n4c3=O)C2)cn1
< 1	CC(=O)Nc1cccc(-c2nc(-c3c(C)noc3C)cc3c2cc(-c2ccccc2)n3C)c1
2.16 (≈ 5.24 µM)	CC(=O)c1c(C)[nH]c(C(=O)Nc2cccc([S+](=O)([O-])Nc3ccccc3)c2)c1C
11.6 (≈ 29.6 µM)	COc1cccc(CNc2ccc(S(=O)(=O)Nc3cccs3)cc2)c1O
> 63	Cc1ccc(S(=O)(=O)Nc2cnccc2C(=O)Nc2nc3ccccc3s2)cc1

solubility kinetic [µg/mL]	SMILES
2.23 (≈ 5.5 µM)	COc1cccc(C(=O)Nc2ccc([S+](=O)([O-])Nc3nccs3)cc2)c1O
> 67	CN(Cc1cnc2nc(N)nc(N)c2n1)c1ccc(C(=O)N[C@@H](CCC(=O)O)C(=O)O)cc1
41.2 (≈ 124 µM)	Cc1cccc(-n2cnc3cc(C(=O)N4CCCCCC4)ccc32)c1
10.9 (≈ 32.8 µM)	NC(=O)c1ccc(-c2ncc3cnc(-c4cccc(F)c4)cn23)cc1
52.4 (≈ 111 µM)	O=[S+]([O-])(Nc1ccc(N2CCNCC2)cc1)c1ccc(NCc2cccc(Cl)c2O)cc1
41.3 (≈ 116 µM)	COc1ccc(NC2CCCN(C(=O)CCc3ccccc3F)C2)cc1 (centres undefined)
17.9 (≈ 42.6 µM)	COc1ccc(C(=O)N[C@@H]2CCC[C@@H]2C(=O)N2CCC(Cc3ccccc3)CC2)cc1
< 1	Cc1nc2ccc(Nc3nc(-c4ccncc4)nc4ccccc34)cc2s1
< 1	Cc1ccc(S(=O)(=O)Nc2ccccc2C(=O)Nc2ccc(-c3ccccc3)cc2)cc1
25.1 (≈ 61.3 µM)	O=C(NCC1CCN(Cc2cccc(Cl)c2)CC1)Nc1ccc(F)c(Cl)c1
42.6 (≈ 124 µM)	CN(C)c1cccc(-c2nc(N3CCC(C(N)=O)CC3)ncc2F)c1
40 (≈ 120 µM)	O=C(NC1CCCc2c1cnn2-c1cccc(O)c1)c1ccccn1 (centres undefined)
> 64	O=C(Cc1ccc(Cl)c(Cl)c1)Nc1ccc(S(=O)(=O)Nc2cncnc2)cc1
< 1	COc1cc(/C=C(\C#N)c2nc3ccccc3[nH]2)ccc1OCc1ccc(F)cc1
28.1	Cc1ccc(Nc2nc(NCCO)c3ccccc3n2)cc1C.Cl
< 1	Cc1ccc(-c2csc(CCn3nc(C)c4c(C(F)(F)F)cc(=O)[nH]c43)n2)cc1
25 (≈ 68.3 µM)	CCNC(=O)c1ccc(-c2ccc3ncnc(NCC4CCCO4)c3c2)o1 (centres undefined)
< 1	c1ccc2c(Nc3ccn[nH]3)nc(-c3ccncc3)nc2c1
< 1	Cc1ccc(-c2ccc(CNc3nc(-c4ccccc4C(C)C)nc4ccccc34)cc2)cn1
4.96 (≈ 9.65 µM)	O=C(NCC1(c2nc(-c3ccccc3)cs2)CCOCC1)c1cccc(-c2noc(C(F)(F)F)n2)c1
